Results from the supplement of paper PMC10307832.

How the values were obtained:
Test in all cases: relative viability (nuclei count vs DMSO), 5 days (fraction); higher = more cells survive
[1] = compound: O=S(=O)(c1ccccc1)N(CC(F)(F)F)c1ccc(C(O)(C(F)(F)F)C(F)(F)F)cc1 + Nc1ncn([C@H]2C[C@H](O)[C@@H](CO)O2)c(=O)n1 [Decitabine] (partner 2 µM)
Outline: (§1)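 Lung cancer cell lines were pin-tool dosed in 1536-well plates on the day after seeding, with either a lone drug or a fixed anchor-drug dose plus five library-drug doses (not always all listed) in √10 steps. Nuclei were counted on 4× images after 5 days. Relative viability is the ratio of treated-well to vehicle-well nuclei counts, with each value a median of duplicate plates.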

[2] = compound: C1=CC2=C(C=CC(=C2)C=C3C(=O)NC(=NCC4=CC=CS4)S3)N=C1 [RO-3306] + O=C(c1cc(Cc2n[nH]c(=O)c3ccccc23)ccc1F)N1CCN(C(=O)C2CC2)CC1 [Olaparib] (partner 8 µM)
Outline: as §1

[3] = compound: C1=CC2=C(C=CC(=C2)C=C3C(=O)NC(=NCC4=CC=CS4)S3)N=C1 [RO-3306] + CC(=O)Nc1cccc(-n2c(=O)n(C3CC3)c(=O)c3c(Nc4ccc(I)cc4F)n(C)c(=O)c(C)c32)c1 [Trametinib] (partner 0.02 µM)
Outline: as §1

[4] = compound: O=S(=O)(c1ccccc1)N(CC(F)(F)F)c1ccc(C(O)(C(F)(F)F)C(F)(F)F)cc1 + CS(=O)(=O)CCNCc1ccc(-c2ccc3ncnc(Nc4ccc(OCc5cccc(F)c5)c(Cl)c4)c3c2)o1 [Lapatinib] (partner 2 µM)
Outline: as §1

Cell Line	relative viability ([1]; first compound 0.8 µM)	relative viability ([1]; first compound 2.53 µM)	relative viability ([1]; first compound 8 µM)	relative viability ([2]; first compound 0.01 µM)	relative viability ([2]; first compound 0.03162 µM)	relative viability ([2]; first compound 0.1 µM)	relative viability ([2]; first compound 0.3162 µM)	relative viability ([2]; first compound 1 µM)	relative viability ([3]; first compound 0.01 µM)	relative viability ([3]; first compound 0.03162 µM)	relative viability ([3]; first compound 0.1 µM)	relative viability ([3]; first compound 0.3162 µM)	relative viability ([3]; first compound 1 µM)	relative viability ([4]; first compound 0.8 µM)	relative viability ([4]; first compound 2.53 µM)	relative viability ([4]; first compound 8 µM)
201T	0.846	0.858	0.834	0.861	0.855	0.82	0.828	0.828	0.691	0.727	0.706	0.725	0.671	1.01	0.949	1.03
A549	0.411	0.292	0.201	0.308	0.295	0.297	0.367	0.303						0.949	0.772	0.715
A-427	0.526	0.509	0.551	0.81	0.813	0.705	0.778	0.652	0.782	0.802	0.679	0.758	0.669	1.04	0.919	1.1
ABC-1		1.02	1.05	0.785	1.17	0.833	0.61	0.771						1.45	1.21	1.26
BEN	0.801	0.773	0.687	1.09	0.893	1.01	1.16	1.02	1	0.895	1.02	1.13	1.13	0.67	0.684	0.629
CAL-12T				0.808	0.717	0.668	0.777	0.737	0.374	0.302	0.309	0.245	0.324		0.531	0.592
COR-L23	0.428	0.439	0.461	0.414	0.364	0.456	0.34	0.322	0.656	0.374	0.558	0.532	0.656	1.24	0.872	0.913
COR-L 105	0.63	0.679	0.649	0.661	0.798	0.633	0.715	0.601	0.392	0.491	0.427	0.434	0.538	0.377	0.386	0.371
Calu-6				0.568	0.576	0.599	0.611	0.604						0.945	0.901	0.966
ChaGo-K-1	0.746	0.497	0.49	0.443	0.402	0.41	0.362	0.223	0.954	0.829	0.859	0.856	0.559			
EBC-1				0.838	0.559	0.632	0.839	0.751						0.307	0.353	0.337
EKVX	0.405	0.286	0.209	1.03	0.821	0.846	0.895	0.704	0.328	0.298	0.362	0.328	0.324	0.187	0.188	0.171
EMC-BAC-2	0.973	0.908	0.974	0.472	0.459	0.468	0.481	0.448	0.917	0.83	0.902	0.889	0.84	0.975	0.864	0.904
EPLC-272H	0.412	0.374	0.359	0.752	0.461	1.22	0.647	0.291	0.272		0.293	0.284	0.271	1.05	0.818	0.924
H3255	0.567	0.473	0.642	0.608	0.513	0.595	0.558	0.505	0.791	0.533	0.584	0.557	0.546	0.249	0.231	0.223
HARA	0.426		0.657	0.795		0.764	0.632	0.763	0.448		0.519	0.694	0.741	0.642	0.575	0.552
HCC-15	0.562	0.419	0.5	0.666	0.628	0.756	0.701	0.693	0.414	0.359	0.374	0.36	0.391	0.933	0.866	0.748
HCC-44	1.03	0.968	0.991	1.01	0.958	1	1.01	1.02	1.06	0.933	1.15	1.13	1.08	1.07	1.04	0.998
HCC-78	0.748	0.714	0.599	0.849	0.714	0.93	0.938	0.762	0.788	0.697	0.744	1.02	0.669	0.61	0.592	0.614
